According to patent publication US9828368B2 (MERCK SHARP & DOHME CORP., priority 2013, dated 2017):

Assays:
human orexin-2 receptor = human orexin-2 receptor (Homo sapiens (Human), UniProt O43614); assay: FLIPR Ca2+ flux assay, hOX2R; format: cell-based; conditions: CHO cells expressing human orexin-2 receptor; agonist 70 pM Ala-6,12 orexin-A
Protocol: In a typical experiment the OX1 and OX2 receptor antagonistic activity of the compounds of the present invention was determined in accordance with the following experimental method. For intracellular calcium measurements, Chinese hamster ovary (CHO) cells expressing the rat orexin-1 receptor or the human orexin-2 receptor, are grown in Iscove's modified DMEM containing 2 mM L-glutamine, […], 1% hypoxanthine-thymidine supplement, 100 U/ml penicillin, 100 μg/ml streptomycin and 10% heat-inactivated fetal calf serum (FCS). The cells are seeded at 20,000 cells/well into Becton-Dickinson black 384-well clear bottom sterile plates coated with poly-D-lysine. All reagents were from GIBCO-Invitrogen Corp. The seeded plates are incubated overnight at 37° C. and 5% CO2. Ala-6,12 human orexin-A as the agonist is prepared as a 1 mM stock solution in 1% bovine serum albumin (BSA) and diluted in assay buffer (HBSS containing 20 mM HEPES, 0.1% BSA and 2.5 mM probenecid, pH7.4) for use in the assay at a final concentration of 70 pM. Test compounds are prepared as 10 mM stock solution in DMSO, then diluted in 384-well plates, first in DMSO, then assay buffer. On the day of the assay, cells are washed 3 times with 100 μl assay buffer and then incubated for 60 min (37° C., 5% CO2) in 60 μl assay buffer containing 1 μM Fluo-4AM ester, 0.02% pluronic acid, and 1% BSA. The dye loading solution is then aspirated and cells are washed 3 times with 100 μl assay buffer. 30 μl of that same buffer is left in each well. Within the Fluorescent Imaging Plate Reader (FLIPR, Molecular Devices), test compounds are added to the plate in a volume of 25 μl, incubated for 5 min and finally 25 μl of agonist is added. Fluorescence is measured for each well at 1 second intervals for 5 minutes and the height of each fluorescence peak is compared to the height of the fluorescence peak induced by 70 pM Ala-6,12 orexin-A with buffer in place of antagonist. […] The intrinsic orexin receptor antagonist activity of a compound which may be used in the present invention may be determined by these assays.

hOX1R = hOX1R (Homo sapiens, UniProt O43613); assay: FLIPR Ca2+ flux assay, hOX1R; format: cell-based; conditions: CHO cells; agonist 70 pM Ala-6,12 orexin-A; rat orexin-1 receptor; read-out: hOX1R FLIPR IC50

Chain of human orexin-2 receptor (O43614 whole entry): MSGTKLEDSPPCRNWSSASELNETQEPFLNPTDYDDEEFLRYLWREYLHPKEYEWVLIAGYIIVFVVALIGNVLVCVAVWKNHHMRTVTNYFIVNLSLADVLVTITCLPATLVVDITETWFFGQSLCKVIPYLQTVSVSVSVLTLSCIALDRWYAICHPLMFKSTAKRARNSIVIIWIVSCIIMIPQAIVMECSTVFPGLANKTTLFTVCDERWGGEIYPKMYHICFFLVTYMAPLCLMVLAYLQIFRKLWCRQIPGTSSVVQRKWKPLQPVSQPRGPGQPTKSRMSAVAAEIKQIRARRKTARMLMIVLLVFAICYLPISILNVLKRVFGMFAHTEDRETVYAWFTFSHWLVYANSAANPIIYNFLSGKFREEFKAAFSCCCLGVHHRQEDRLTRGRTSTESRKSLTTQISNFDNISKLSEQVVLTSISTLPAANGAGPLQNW

Compound	IC50 (human orexin-2 receptor)	IC50 (hOX1R)
COCCc1ccccc1C(=O)N1C[C@H](c2nc(C(C)(C)O)c(C)o2)CC[C@H]1C [Example 41, ((2R,5R)-5-(4-(2-Hydroxypropan-2-yl)-5-methyloxazol-2-yl)-2-methylpiperidin-1-yl)(2-(2-methoxyethyl)phenyl)methanone]	57 nM	> 10000 nM
Cc1oc([C@@H]2CC[C@@H](C)N(C(=O)c3cnsc3-n3nccn3)C2)nc1C(C)(C)O [Example 42, (5-(2H-1,2,3-Triazol-2-yl)isothiazol-4-yl)((2R,5R)-5-(4-(2-hydroxypropan-2-yl)-5-methyloxazol-2-yl)-2-methylpiperidin-1-yl)methanone]	114 nM	> 10000 nM
Cc1cc(C(=O)N2C[C@H](c3nc(C(C)(C)O)c(C)o3)CC[C@H]2C)c(-n2nccn2)s1 [Example 43, ((2R,5R)-5-(4-(2-Hydroxypropan-2-yl)-5-methyloxazol-2-yl)-2-methylpiperidin-1-yl)(5-methyl-2-(2H-1,2,3-triazol-2-yl)thiophen-3-yl)methanone]	30 nM	1190 nM
CC[C@@](C)(O)c1nc([C@@H]2CC[C@@H](C)N(C(=O)c3ccccc3-n3nccn3)C2)oc1C [Example 44, (2-(2H-1,2,3-Triazol-2-yl)phenyl)((2R,5R)-5-(4-((R)-2-hydroxybutan-2-yl)-5-methyloxazol-2-yl)-2-methylpiperidin-1-yl)methanone]	31 nM	790 nM
CC[C@](C)(O)c1nc([C@@H]2CC[C@@H](C)N(C(=O)c3ccccc3-n3nccn3)C2)oc1C [Example 45, (2-(2H-1,2,3-triazol-2-yl)phenyl)((2R,5R)-5-(4-((S)-2-hydroxybutan-2-yl)-5-methyloxazol-2-yl)-2-methylpiperidin-1-yl)methanone]	24 nM	1220 nM
CC[C@](C)(O)c1nc([C@@H]2CC[C@@H](C)N(C(=O)c3cscc3-n3nccn3)C2)oc1C [Example 46, (4-(2H-1,2,3-triazol-2-yl)thiophen-3-yl)((2R,5R)-5-(4-((S)-2-hydroxybutan-2-yl)-5-methyloxazol-2-yl)-2-methylpiperidin-1-yl)methanone]	37 nM	4700 nM
CC[C@@](C)(O)c1nc([C@@H]2CC[C@@H](C)N(C(=O)c3cscc3-n3nccn3)C2)oc1C [Example 47, (4-(2H-1,2,3-triazol-2-yl)thiophen-3-yl)((2R,5R)-5-(4-((R)-2-hydroxybutan-2-yl)-5-methyloxazol-2-yl)-2-methylpiperidin-1-yl)methanone]	18 nM	9770 nM
C[C@@H]1CC[C@@H](c2nc(C(C)(C)O)c(Cl)o2)CN1C(=O)c1ccccc1-n1nccn1 [Example 52, (2-(2H-1,2,3-Triazol-2-yl)phenyl)((2R,5R)-5-(5-chloro-4-(2-hydroxypropan-2-yl)oxazol-2-yl)-2-methylpiperidin-1-yl)methanone]	265 nM	3160 nM
C[C@@H]1CC[C@@H](c2nc(C(C)(C)O)c(C(F)F)o2)CN1C(=O)c1ccccc1-n1nccn1 [Example 53, (2-(2H-1,2,3-Triazol-2-yl)phenyl)((2R,5R)-5-(5-(difluoromethyl)-4-(2-hydroxypropan-2-yl)oxazol-2-yl)-2-methylpiperidin-1-yl)methanone]	43 nM	316 nM
C[C@@H]1CC[C@@H](c2nc(C(C)(C)O)c(C(F)(F)F)o2)CN1C(=O)c1ccccc1-n1nccn1 [Example 54, (2-(2H-1,2,3-Triazol-2-yl)phenyl)((2R,5R)-5-(4-(2-hydroxypropan-2-yl)-5-(trifluoromethyl)oxazol-2-yl)-2-methylpiperidin-1-yl)methanone]	42 nM	240 nM
Cc1nc([C@@H]2CC[C@@H](C)N(C(=O)c3ccccc3-n3nccn3)C2)oc1C(C)(C)O [Example 55, (2-(2H-1,2,3-Triazol-2-yl)phenyl)((2R,5R)-5-(5-(2-hydroxypropan-2-yl)-4-methyloxazol-2-yl)-2-methylpiperidin-1-yl)methanone]	63 nM	89 nM
COC(=O)c1nc([C@@H]2CC[C@@H](C)N(C(=O)c3ccccc3-n3nccn3)C2)oc1-c1ccccc1 [Example 56, Methyl 2-((3R,6R)-1-(2-(2H-1,2,3-triazol-2-yl)benzoyl)-6-methylpiperidin-3-yl)-5-phenyloxazole-4-carboxylate]	1590 nM	359 nM
C[C@@H]1CC[C@@H](c2nc(CO)c(-c3ccccc3)o2)CN1C(=O)c1ccccc1-n1nccn1 [Example 57, (2-(2H-1,2,3-Triazol-2-yl)phenyl)((2R,5R)-5-(4-(hydroxymethyl)-5-phenyloxazol-2-yl)-2-methylpiperidin-1-yl)methanone]	1170 nM	368 nM
C[C@@H]1CC[C@@H](c2nc(CF)c(-c3ccccc3)o2)CN1C(=O)c1ccccc1-n1nccn1 [Example 58, (2-(2H-1,2,3-Triazol-2-yl)phenyl)((2R,5R)-5-(4-(fluoromethyl)-5-phenyloxazol-2-yl)-2-methylpiperidin-1-yl)methanone]	159 nM	220 nM
COCc1nc([C@@H]2CC[C@@H](C)N(C(=O)c3ccccc3-n3nccn3)C2)oc1-c1ccccc1 [Example 59, (2-(2H-1,2,3-Triazol-2-yl)phenyl)((2R,5R)-5-(4-(methoxymethyl)-5-phenyloxazol-2-yl)-2-methylpiperidin-1-yl)methanone]	347 nM	100 nM
C[C@@H]1CC[C@@H](c2nc(C(C)(C)O)c(-c3ccccc3)o2)CN1C(=O)c1ccccc1-n1nccn1 [Example 60, (2-(2H-1,2,3-Triazol-2-yl)phenyl)((2R,5R)-5-(4-(2-hydroxypropan-2-yl)-5-phenyloxazol-2-yl)-2-methylpiperidin-1-yl)methanone]	84 nM	76 nM
C[C@@H]1CC[C@@H](c2nc(C(N)=O)c(-c3ccccc3)o2)CN1C(=O)c1ccccc1-n1nccn1 [Example 61, 2-((3R,6R)-1-(2-(2H-1,2,3-Triazol-2-yl)benzoyl)-6-methylpiperidin-3-yl)-5-phenyloxazole-4-carboxamide]	197 nM	65 nM
C[C@@H]1CC[C@@H](c2nc(CC(C)(C)O)c(-c3ccccc3)o2)CN1C(=O)c1ccccc1-n1nccn1 [Example 68, (2-(2H-1,2,3-Triazol-2-yl)phenyl)((2R,5R)-5-(4-(2-hydroxy-2-methylpropyl)-5-phenyloxazol-2-yl)-2-methylpiperidin-1-yl)methanone]	62 nM	95 nM
COC(C)(C)Cc1nc([C@@H]2CC[C@@H](C)N(C(=O)c3ccccc3-n3nccn3)C2)oc1-c1ccccc1 [Example 69, (2-(2H-1,2,3-Triazol-2-yl)phenyl)((2R,5R)-5-(4-(2-methoxy-2-methylpropyl)-5-phenyl-oxazol-2-yl)-2-methylpiperidin-1-yl)methanone]	287 nM	385 nM
C[C@@H]1CC[C@@H](c2nc(CCO)c(-c3ccccc3)o2)CN1C(=O)c1ccccc1-n1nccn1 [Example 70, (2-(2H-1,2,3-Triazol-2-yl)phenyl)((2R,5R)-5-(4-(2-hydroxyethyl)-5-phenyloxazol-2-yl)-2-methylpiperidin-1-yl)methanone]	59 nM	38 nM
C[C@@H]1CC[C@@H](c2nc(CCF)c(-c3ccccc3)o2)CN1C(=O)c1ccccc1-n1nccn1 [Example 71, (2-(2H-1,2,3-triazol-2-yl)phenyl)((2R,5R)-5-(4-(2-fluoroethyl)-5-phenyloxazol-2-yl)-2-methylpiperidin-1-yl)methanone]	61 nM	70 nM
Cc1ccc(-n2nccn2)c(C(=O)N2C[C@H](c3ncc(C)o3)CC[C@H]2C)c1 [Example 72, (5-Methyl-2-(2H-1,2,3-triazol-2-yl)phenyl)((2R,5R)-2-methyl-5-(5-methyloxazol-2-yl)piperidin-1-yl)methanone]	433 nM	4540 nM
C[C@@H]1CC[C@@H](c2ncc(C(C)(C)C)o2)CN1C(=O)c1ccccc1-n1nccn1 [Example 73, (2-(2H-1,2,3-Triazol-2-yl)phenyl)((2R,5R)-5-(5-(tert-butyl)oxazol-2-yl)-2-methylpiperidin-1-yl)methanone]	30 nM	151 nM
C[C@@H]1CC[C@@H](c2ncc(-c3ccccc3)o2)CN1C(=O)c1ccccc1-n1nccn1 [Example 74, (2-(2H-1,2,3-Triazol-2-yl)phenyl)((2R, 5R)-2-methyl-5-(5-phenyloxazol-2-yl)piperidin-1-yl)methanone]	111 nM	55 nM
